Tests used:
nude mice = test: In vivo toxicity in nude mice; design: species or system mouse; settings: 1 × 100 mg/kg i.p., 1 × 200 mg/kg orally
Description: In vivo toxicity of 4d was studied in nude mice (Charles River Laboratories, Sulzfeld, Germany). These experiments were carried out following the institutional guidelines. 4d was formulated in 10% Tween80/10% ethanol/80% saline for administration. […] The body weight of the mice was assessed daily under therapy.

[1] = tested on: acetyl–alpha-tubulin in 518A2 melanoma cells; test: Western blot and immunofluorescence of acetyl-alpha-tubulin; type: cell-based, human; settings: 4f 4, 5, 6 µM (blot), 4 µM (immunofluorescence), 24 h
Description: After harvesting the cells by trypsination, they were pelleted by centrifugation (300× g, 5 min) followed by cell lysis in 100 µL lysis buffer (20 mM DTT, 200 µM sodium vanadate, 50 mM Tris/HCl, 1% triton X-100, 150 mM NaCl, pH 7.4) for 10 min on ice. […] Equal amounts of total protein were subjected to 10% SDS-polyacrylamide gel electrophoresis (SDS-PAGE) and transferred to polyvinylidene difluoride membranes (PVDF, Carl Roth). For subsequent analysis of acetylated protein and of alpha-tubulin which was used as a loading control, membranes were blocked and incubated with primary antibody solutions in 5% bovine serum albumin in 1× TBS or 5% milk powder in PBS, respectively. The protein bands were visualized by chemoluminescence (secondary antibody-HRP conjugates, ECL detection system; Cell Signaling) using a LAS-3000 imager (Fujifilm).
Immuofluorescence staining of acetylated alpha- tubulin.
After washing the cells with PBS, they were fixed in 3.7% formaldehyde in PBS (20 min, rt) followed by blocking and permeabilization in TBS supplemented with 5% BSA and 0.1% triton X-100 (30 min, rt). […]
antibody conjugate in the dark (2 h, rt). […] Pictures were taken by using a Zeiss Imager A1 AX10 fluorescence microscope (400× magnification). […]
The open image area after 24 h (%) compared to that at 0 h was quantified from three independent experiments by using the imageJ 1.50i software. […]

SMILES | body weight changes (nude mice) | tolerability in mice (nude mice; observed two weeks) | acetylation of alpha-tubulin [1]
COc1ccc(-c2ocnc2-c2cc(Br)c(OC)c(OC)c2)cc1OCCCC(=O)NO [4d, N-Hydroxy-4-[1-methoxy-4-(4’-(3’’-bromo-4’’,5’’-dimethoxyphenyl)oxazol-5’-yl)-2-phenoxy]butanamide] | ≤ 5% | tolerated well | 
COc1ccc(-c2ocnc2-c2cc(Br)c(OC)c(OC)c2)cc1OCCCCCC(=O)NO [4f, N-Hydroxy-6-[1-methoxy-4-(4’-(3’’-bromo-4’’,5’’-dimethoxyphenyl)oxazol-5’-yl)-2-phenoxy]hexanamide] |  |  | distinct increase of acetyl–alpha-tubulin

Reference: paper PMC6359144 (International Journal of Molecular Sciences, 2019)
